Target: T1, KRAS G12D 1-169 (His-tagged, GDP-loaded) (Homo sapiens, UniProt P01116, G12D)
T1 construct: His -tagged GDP-loaded G12D 1-169; made in house; host or cells: E. coli, e.g. BL21 (DE3)
Assay: Covalent modification of KRAS protein by intact-protein LC-MS
Format: binding
Settings: comparable or same conditions as K-Ras G12S
Method: Test compounds are prepared as 10 mM stock solutions in DMSO (Fisher cat #BP231-100). KRAS protein (His -tagged GDP-loaded wildtype 1-169, His -tagged GDP-loaded G12S 1-169 or His -tagged GDP-loaded G12D 1-169) is diluted to ˜2 μM in appropriate buffer (e.g., a Hepes buffer at physiological conditions). For testing KRAS modification, compounds are diluted to 50× final test concentration in DMSO in 96-well storage plates. 2 μl of the diluted 50× compounds are added to appropriate wells in the PCR plate (Fisher cat #AB-0800). ˜49 μl of the stock protein solution is added to each well of the 96-well PCR plate. Reactions are mixed carefully. The plate is sealed well with aluminum plate seal, and stored in drawer at room temperature for 24 hrs. 5 μl of 2% formic acid (Fisher cat #A117-50) in MilliQ H2O is then added to each well followed by mixing with a pipette. The plate is then resealed with aluminum seal and stored until mass spectrometry analysis.
The extent of covalent modification of KRAS proteins was determined by liquid chromatography electrospray mass spectrometry analysis of the intact proteins on a Thermo Q-Exactive Plus mass spectrometer. 20 μl of sample was injected onto a bioZen 3.6 μm Intact C4 column (Phenomenex cat #00B-4767-AN) placed in a column oven set to 40° C. and separated using a suitable LC gradient from ˜20% to ˜60% solvent B. Solvent A was 0.1% formic acid and solvent B was 0.1% formic acid in acetonitrile. HESI source settings were set to 40, 5 and 1 for the sheath, auxiliary and sweep gas flow, respectively. The spray voltage was 4 kV, and the capillary temperature was 320° C. S-lens RF level was 50 and auxiliary gas heater temperature was set to 200° C. The mass spectrometry was acquired using a scan range from 650 to 1750 m/z using positive polarity at a mass resolution of 70,000, AGC target of 1e6 ions and maximum injection time of 250 ms. The recorded protein mass spectrum was deconvoluted from the raw data file using Protein Deconvolution v4.0 (Thermo). The protein mass and adduct masses were exported with their peak intensities. The peak intensities for the unmodified and modified protein were used to calculate the percent covalent modification of the KRAS protein based on the following equation: % KRAS protein modification=((KRAS−compound)/(KRAS)+(KRAS−Compound))*100.

T1 sequence (P01116 1-169 isoform P01116-2 G12D): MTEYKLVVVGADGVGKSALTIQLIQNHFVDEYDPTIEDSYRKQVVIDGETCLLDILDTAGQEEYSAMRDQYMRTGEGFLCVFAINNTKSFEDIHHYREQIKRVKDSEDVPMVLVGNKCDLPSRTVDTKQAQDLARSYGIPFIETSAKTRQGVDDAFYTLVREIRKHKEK

Row | covalent labeling of K-Ras G12D | Compound
1 | essentially no detectable labeling | N#Cc1c(N)sc2c(F)ccc(-c3c(Cl)cc4c(N5CCOC6(CN(C(=O)n7ccnn7)C6)C5)nc(OC[C@@]56CCCN5C[C@H](F)C6)nc4c3F)c12 [Compound A195, 4-(4-(2-(1H-1,2,3-triazole-1-carbonyl)-5-oxa-2,8-diazaspiro-[3.5]nonan-8-yl)-6-chloro-8-fluoro-2-(((2R,7aS)-2-fluoro-tetrahydro-1H-pyrrolizin-7a(5H)-yl)methoxy)quinazolin-7-yl)-2-amino-7-fluorobenzo-[b]thiophene-3-carbonitrile]
2 | essentially no detectable labeling | Nc1nc2c(-c3c(Cl)cc4c(N5CCC6(CN(C(=O)n7cncn7)CCO6)C5)nc(OC[C@@]56CCCN5C[C@H](F)C6)nc4c3F)ccc(F)c2s1 (stereo partly drawn) [Compound A202, (2-(7-(2-amino-7-fluorobenzo-[d]thiazol-4-yl)-6-chloro-8-fluoro-2-(((2R,7aS)-2-fluoro-tetrahydro-1H-pyrrolizin-7a(5H)-yl)methoxy)quinazolin-4-yl)-6-oxa-2,9-diazaspiro[4.5]-decan-9-yl)(1H-1,2,4-triazol-1-yl)methanone]
3 | essentially no detectable labeling | Nc1nc2c(-c3c(Cl)cc4c(N5CC6(CCCN(C(=O)n7cncn7)C6)C5)nc(OC[C@@]56CCCN5C[C@H](F)C6)nc4c3F)ccc(F)c2s1 [Compound A230, (2-(7-(2-amino-7-fluorobenzo-[d]thiazol-4-yl)-6-chloro-8-fluoro-2-(((2R,7aS)-2-fluoro-tetrahydro-1H-pyrrolizin-7a(5H)-yl)methoxy)quinazolin-4-yl)-2,6-diazaspiro[3.5]nonan-6-yl)(1H-1,2,4-triazol-1-yl)-methanone]
4 | essentially no detectable labeling | N#Cc1c(N)sc2c(F)ccc(-c3c(Cl)cc4c(OC5CCCCN(C(=O)n6cncn6)C5)nc(OC[C@@]56CCCN5C[C@H](F)C6)nc4c3F)c12 (stereo partly drawn) [Compound A258, 4-(4-((1-(1H-1,2,4-triazole-1-carbonyl)azepan-3-yl)oxy)-6-chloro-8-fluoro-2-(((2R,7aS)-2-fluorotetrahydro-1H-pyrrolizin-7a(5H)-yl)methoxy)quinazolin-7-yl)-2-amino-7-fluorobenzo-[b]thiophene-3-carbonitrile]
5 | essentially no detectable labeling | Nc1nc2c(-c3c(Cl)cc4c(N5CCCCC6(CN(C(=O)n7cncn7)C6)C5)nc(OC[C@@]56CCCN5C[C@H](F)C6)nc4c3F)ccc(F)c2s1 [Compound A265, (6-(7-(2-amino-7-fluorobenzo-[d]thiazol-4-yl)-6-chloro-8-fluoro-2-(((2R,7aS)-2-fluoro-tetrahydro-1H-pyrrolizin-7a(5H)-yl)methoxy)quinazolin-4-yl)-2,6-diazaspiro[3.6]decan-2-yl)(1H-1,2,4-triazol-1-yl)-methanone]
6 | essentially no detectable labeling | N#Cc1c(N)sc2c(F)ccc(-c3c(Cl)cc4c(N5CCCC6(CCN(C(=O)n7cncn7)C6)C5)nc(OC[C@@]56CCCN5C[C@H](F)C6)nc4c3F)c12 (stereo partly drawn) [Compound A269, 4-(4-(2-(1H-1,2,4-triazole-1-carbonyl)-2,7-diazaspiro[4.5]-decan-7-yl)-6-chloro-8-fluoro-2-(((2R,7aS)-2-fluorotetrahydro-1H-pyrrolizin-7a(5H)-yl)meth-oxy)quinazolin-7-yl)-2-amino-7-fluorobenzo[b]thiophene-3-carbonitrile]
7 | essentially no detectable labeling | Nc1nc2c(-c3c(Cl)cc4c(N5CC6(CCN(C(=O)n7cncn7)C6)C5)nc(OC[C@@]56CCCN5C[C@H](F)C6)nc4c3F)ccc(F)c2s1 [Compound A279, (2-(7-(2-amino-7-fluorobenzo-[d]thiazol-4-yl)-6-chloro-8-fluoro-2-(((2R,7aS)-2-fluoro-tetrahydro-1H-pyrrolizin-7a(5H)-yl)methoxy)quinazolin-4-yl)-2,6-diazaspiro[3.4]octan-6-yl)(1H-1,2,4-triazol-1-yl)-methanone]
8 | essentially no detectable labeling | N#Cc1c(N)sc2c(F)ccc(-c3c(Cl)cc4c(N5CC6(CCCCN(C(=O)n7cncn7)C6)C5)nc(OC[C@@]56CCCN5C[C@H](F)C6)nc4c3F)c12 [Compound A285, 4-(4-(6-(1H-1,2,4-triazole-1-carbonyl)-2,6-diazaspiro[3.6]-decan-2-yl)-6-chloro-8-fluoro-2-(((2R,7aS)-2-fluorotetra-hydro-1H-pyrrolizin-7a(5H)-yl)methoxy)quinazolin-7-yl)-2-amino-7-fluorobenzo[b]thio-phene-3-carbonitrile]

Second part, the compound before the results:

Row | Compound | covalent labeling of K-Ras G12D
9 | Nc1nc2c(-c3c(Cl)cc4c(N5CCC56CCCN(C(=O)n5cncn5)C6)nc(OCC56CCCN5CC(F)C6)nc4c3F)ccc(F)c2s1 (stereo not drawn) [Compound A197, (1-(7-(2-amino-7-fluorobenzo-[d]thiazol-4-yl)-6-chloro-8-fluoro-2-((2-fluorotetrahydro-1H-pyrrolizin-7a(5H)-yl)meth-oxy)quinazolin-4-yl)-1,6-diazaspiro[3.5]nonan-6-yl)(1H-1,2,4-triazol-1-yl)methanone] | essentially no detectable labeling
10 | Nc1nc2c(-c3c(Cl)cc4c(N5CCC56CCCN(C(=O)n5cncn5)CC6)nc(OC[C@@]56CCCN5C[C@H](F)C6)nc4c3F)ccc(F)c2s1 (stereo partly drawn) [Compound A209, (1-(7-(2-amino-7-fluorobenzo-[d]thiazol-4-yl)-6-chloro-8-fluoro-2-(((2R,7aS)-2-fluoro-tetrahydro-1H-pyrrolizin-7a(5H)-yl)methoxy)quinazolin-4-yl)-1,7-diazaspiro[3.6]decan-7-yl)(1H-1,2,4-triazol-1-yl)-methanone] | essentially no detectable labeling
11 | Nc1nc2c(-c3c(Cl)cc4c(N5CCOC6(CCN(C(=O)n7cncn7)CC6)C5)nc(OCC56CCCN5C[C@H](F)C6)nc4c3F)ccc(F)c2s1 (stereo partly drawn) [Compound A243, (4-(7-(2-amino-7-fluorobenzo-[d]thiazol-4-yl)-6-chloro-8-fluoro-2-(((2R)-2-fluorotetra-hydro-1H-pyrrolizin-7a(5H)-yl)methoxy)quinazolin-4-yl)-1-oxa-4,9-diazaspiro[5.5]undecan-9-yl)(1H-1,2,4-triazol-1-yl)-methanone] | essentially no detectable labeling
12 | C[C@H](Oc1nc(N2CCOC3(CN(C(=O)n4cncn4)C3)C2)c2cc(Cl)c(-c3ccc(F)c4sc(N)c(C#N)c34)c(F)c2n1)[C@@H]1CCCN1C [Compound A275, 4-(4-(2-(1H-1,2,4-triazole-1-carbonyl)-5-oxa-2,8-diazaspiro-[3.5]nonan-8-yl)-6-chloro-8-fluoro-2-((S)-1-((S)-1-methyl-pyrrolidin-2-yl)ethoxy)quin-azolin-7-yl)-2-amino-7-fluoro-benzo[b]thiophene-3-carbonitrile] | essentially no detectable labeling
13 | Cc1nc(C)n(C(=O)N2CC3(C2)CN(c2nc(OC[C@@]45CCCN4C[C@H](F)C5)nc4c(F)c(-c5ccc(F)c6sc(N)c(C#N)c56)c(Cl)cc24)CCO3)n1 [Compound A283, 2-amino-4-(6-chloro-4-(2-(3,5-dimethyl-1H-1,2,4-triazole-1-carbonyl)-5-oxa-2,8-diazaspiro-[3.5]nonan-8-yl)-8-fluoro-2-(((2R,7aS)-2-fluorotetrahydro-1H-pyrrolizin-7a(5H)-yl)meth-oxy)quinazolin-7-yl)-7-fluoro-benzo[b]thiophene-3-carbonitrile] | essentially no detectable labeling
14 | C#Cc1c(F)ccc2cc(O)cc(-c3ncc4c(N5CCOCC6(CN(C(=O)n7cnc(C)n7)C6)C5)nc(OC[C@@]56CCCN5C[C@H](F)C6)nc4c3F)c12 [Compound A298, (9-(7-(8-ethynyl-7-fluoro-3-hydroxynaphthalen-1-yl)-8-fluoro-2-(((2R,7aS)-2-fluoro-tetrahydro-1H-pyrrolizin-7a(5H)-yl)methoxy)pyrido[4,3-d]pyrimidin-4-yl)-6-oxa-2,9-diazaspiro[3.6]decan-2-yl)(3-methyl-1H-1,2,4-triazol-1-yl)-methanone] | essentially no detectable labeling
15 | Cc1ncn(C(=O)N2CCCC(Oc3nc(OC[C@@]45CCCN4C[C@H](F)C5)nc4c(F)c(-c5ccc(F)c6sc(N)c(C#N)c56)c(Cl)cc34)C2)n1 (stereo partly drawn) [Compound A302, 2-amino-4-(6-chloro-8-fluoro-2-(((2R,7aS)-2-fluorotetrahydro-1H-pyrrolizin-7a(5H)-yl)meth-oxy)-4-((1-(3-methyl-1H-1,2,4-triazole-1-carbonyl)piperidin-3-yl)oxy)quinazolin-7-yl)-7-fluorobenzo[b]thiophene-3-carbonitrile] | essentially no detectable labeling
